The data set can be described thus: Water solubility of trehalose at ambient temperature (Experiment 1). Type of data set: physicochemical. The conditions noted are these: for solubility thermodynamic at 24 h: water. On the procedure:
The water solubility of trehalose at ambient temperature was studied by placing into a glass beaker 10 parts by weight of water and 20 parts by weight of hydrous crystalline trehalose, incubating the mixture under stirring conditions at 10°, 15°, 20°, 25°, 30° or 40° C. for 24 hours in an incubator, filtering the resulting mixture, measuring the trehalose concentration of the filtrate, and determining the water solubility of trehalose in an anhydrous form in 100 g water at each temperature.

In brackets after ≈: the same amount, converted by molar mass. Read-outs that look alike come from different tables or passages of the source.

Turning to `OC[C@H]1O[C@H](O[C@H]2O[C@H](CO)[C@@H](O)[C@H](O)[C@H]2O)[C@H](O)[C@@H](O)[C@@H]1O` [Trehalose, α,α-trehalose], the “water solubility / crystallization of trehalose (in words)” value (ambient temperature) is “dissolves in water in a relatively low concentration and readily crystallizes at ambient temperature”. Moreover, the solubility thermodynamic at 24 h came to 553 mg/mL (≈ 1620 mM) (10 °C, anhydrous form, read-out: trehalose content (g) dissolved in 100 g water); 618 mg/mL (≈ 1810 mM) (15 °C, anhydrous form, read-out: trehalose content (g) dissolved in 100 g water); 689 mg/mL (≈ 2010 mM) (20 °C, anhydrous form, read-out: trehalose content (g) dissolved in 100 g water); 773 mg/mL (≈ 2260 mM) (25 °C, anhydrous form, read-out: trehalose content (g) dissolved in 100 g water); 866 mg/mL (≈ 2530 mM) (30 °C, anhydrous form, read-out: trehalose content (g) dissolved in 100 g water); 1090 mg/mL (≈ 3190 mM) (40 °C, anhydrous form, read-out: trehalose content (g) dissolved in 100 g water). Also, the solubility thermodynamic at 24 h is, setting by setting: (saturated in water, 10 °C, read-out: trehalose concentration (w/w %)) 356 mg/mL (≈ 1040 mM); (saturated in water, 15 °C, read-out: trehalose concentration (w/w %)) 382 mg/mL (≈ 1120 mM); (saturated in water, 20 °C, read-out: trehalose concentration (w/w %)) 408 mg/mL (≈ 1190 mM); (saturated in water, 25 °C, read-out: trehalose concentration (w/w %)) 436 mg/mL (≈ 1270 mM); (saturated in water, 30 °C, read-out: trehalose concentration (w/w %)) 464 mg/mL (≈ 1360 mM); (saturated in water, 40 °C, read-out: trehalose concentration (w/w %)) 522 mg/mL (≈ 1520 mM).

The record behind these values is patent US5892026A, “High Trehalose content syrup” (Kabushiki Kaisha Hayashibara Seibutsu Kagaku Kenkyujo, priority 1995, dated 1999).
